According to PubChem BioAssay AID540306 (Sanford-Burnham Center for Chemical Genomics, 2011):
Active and inactive are the calls of the source.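 The calls were made as follows: active = mean EC50 of 20 µM or lower; inactive = the rest.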

The molecules below were run against CHO-CHOP luciferase reporter, UPR apoptotic arm activation (assay: PERK-eIF2a-CHOP apoptotic UPR arm activators, SAR follow-up, counter-screen for UPR adaptive arm activator project, CHO-CHOP cells, luminescence (AID 540306)).
With `Cc1nc(Nc2ncccn2)nc2ccccc12` the EC50 was > 80 µM (inactive).
For `Cc1nc(Nc2nc(-c3ccccc3)cc(=O)[nH]2)nc2ccccc12`, the EC50 was > 80 µM (inactive).
`Cc1nc(Nc2nccc(-c3ccccc3)n2)nc2ccccc12` was tested, and the EC50 was “inactive”.
In the case of `Cc1cc(=O)[nH]c(Nc2nc(C)c3ccccc3n2)n1`, the EC50 is reported as > 80 µM (inactive).
`Cc1ccnc(Nc2ncccn2)n1` was tested, and the EC50 was > 80 µM (inactive).
`COc1cc(-c2ccccc2)nc(Nc2nc(C)c3ccccc3n2)n1` was tested, and the EC50 was > 80 µM (inactive).
For `Cc1cc(-c2ccccc2)nc(Nc2nc(C)c3ccccc3n2)n1`, the EC50 was > 80 µM (inactive).
In the case of `Cc1ccnc(Nc2nc(-c3ccccc3)cc(=O)[nH]2)n1`, the EC50 is reported as > 80 µM (inactive).
